In paper PMC4467469 (Methods in molecular biology (Clifton, N.J.), 2012):

Molecular target: Cdc42 (Homo sapiens, UniProt P60953)
Assay: equilibrium binding by flow cytometry on beads

Cdc42, sequence (P60953 1-188): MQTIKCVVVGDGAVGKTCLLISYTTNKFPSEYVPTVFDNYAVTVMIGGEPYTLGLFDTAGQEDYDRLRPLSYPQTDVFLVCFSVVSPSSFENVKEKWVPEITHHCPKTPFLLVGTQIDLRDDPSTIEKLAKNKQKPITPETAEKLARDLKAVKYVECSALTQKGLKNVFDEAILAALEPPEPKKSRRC

Kd: 0.6 nM
Structure (SMILES): Cc1cc(C)n2c1C=C1C=CC(CCC(=O)NCCNC(=O)OC3C(COP(=O)(O)OP(=O)(O)OP(=O)(O)O)OC(n4cnc5c(=O)[nH]c(N)nc54)C3O)=[N+]1[B-]2(F)F (stereo not shown) [BODIPY-FL-GTP]
